Measured values reported in US9072717B2, “Cosmetic compositions containing alpha glucosidase inhibitors and methods of use” (ELC Management LLC, priority 2007, dated 2015).

Target: T1, α-glucosidase—Saccharomyces cerevisiae recombinant (Saccharomyces cerevisiae, UniProt P53341)
T1 construct: purchased Sigma G0660
Assay: alpha glucosidase inhibitory activity assay (release of p-nitrophenol from p-nitrophenyl-α-D-glucoside)
Format: biochemical
Settings: end concentration in the well 0.8 mM; 'should cause about 50% inhibition'
Method: [drawing 1] wherein the α-glucosidase activity is measured by the release of p-nitrophenol, and as further set forth in Example 1.
Materials were tested for alpha glucosidase inhibitory activity as follows:
Materials: Standard laboratory equipment, 96 well half area plates with UV transparent bottom (Costar, 3679), 8 channel multi pipette (20 to 200 μl), and spectrophotometer, Spectra Max Plus (Molecular Devices).
Reagents: • (a) Distilled water • (b) Potassium dihydrogen phosphate • (c) Dimethylsulfoxide (Acros, 12779) • (d) α-glucosidase—Saccharomyces cerevisiae recombinant (min. 125 U/mg protein) (Sigma, G0660) • (e) p-nitrophenol-α-D-glucopyranoside (Sigma, N1377) • (f) Australine hydrochloride, castanospermum australe (Calbiochem, #189422) (reference inhibitor)
60 μl of reference inhibitor is needed per well)
Stock solution of the test sample is prepared using 142 mM potassium phosphate buffer (solubility of test sample can be improved using DMSO/potassium phosphate mixtures. The end concentration of DMSO should not exceed 1% v/v which corresponds to 1.66% DMSO in the sample stock solution. […]
Pipette with 8 channel multi-pipette 20 μl of the enzyme and mix well. […] The absorbance was measured at […].
For each concentration of potential inhibitor, the initial reaction velocity is calculated, being the initial slope of the absorbance vs. time data. […]

T1 sequence (P53341 whole entry): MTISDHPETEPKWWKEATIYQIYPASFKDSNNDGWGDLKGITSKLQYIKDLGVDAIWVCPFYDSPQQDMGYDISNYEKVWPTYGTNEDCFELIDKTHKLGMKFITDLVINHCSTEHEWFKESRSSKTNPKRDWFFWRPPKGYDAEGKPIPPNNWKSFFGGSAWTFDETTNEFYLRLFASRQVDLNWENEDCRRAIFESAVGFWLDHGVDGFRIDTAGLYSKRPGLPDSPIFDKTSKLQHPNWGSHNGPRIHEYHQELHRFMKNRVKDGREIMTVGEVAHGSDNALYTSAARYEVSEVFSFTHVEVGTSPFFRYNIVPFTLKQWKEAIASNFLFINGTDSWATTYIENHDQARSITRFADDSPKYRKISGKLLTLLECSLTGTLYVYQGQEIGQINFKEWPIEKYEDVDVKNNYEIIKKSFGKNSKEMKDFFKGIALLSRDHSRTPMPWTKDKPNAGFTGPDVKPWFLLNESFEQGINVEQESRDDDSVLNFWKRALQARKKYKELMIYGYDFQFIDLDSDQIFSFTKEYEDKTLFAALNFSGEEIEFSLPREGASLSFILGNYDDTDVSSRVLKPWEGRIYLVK

`Cl.OC[C@@H]1[C@@H](O)[C@H](O)[C@H]2[C@@H](O)CCN21` [Australine HCl, Australine hydrochloride] was tested. Which “inhibition in the well (reference inhibitor)” value did it give?
The value was “about 50%”.
